Data reported in patent US10195204B2, “Methods of treating hemoglobinopathies” (DUKE UNIVERSITY, priority 2011, dated 2019).

Columns and labels:
[1] = tested on: ICAM-4 (LW) phosphorylation; test: 32P labeling, ICAM-4 immunoprecipitation and detection of phosphorylation in SS RBCs; format: cell-based, human; details: SS RBCs preincubated with inhibitor
Method: Cells were then washed 4 times. ICAM-4 protein immunoprecipitation, and total and phospho-ICAM-4 detection were performed as previously described in detail.^4 To further confirm that the immunoprecipitates were specific for ICAM-4, anti-ICAM-4 mAb and the negative control immunoglobulin P3 were used to immunoprecipitate ICAM-4 from non-radiolabeled SS RBCs incubated in the presence or absence of epinephrine. Blots were then immunostained with anti-ICAM-4 mAb.

[2] = tested on: ERK1/2 phosphorylation in SS RBCs; test: ERK1/2 phosphorylation in SS RBCs, Western blot (phosphoERK normalized to total ERK); format: cell-based, human
Method: Aliquots of packed RBCs were treated with various reagents to affect cAMP signaling or protein phosphorylation. […] Treated RBCs were then washed 5 times with 4 ml PBS with Ca^2+ and Mg^2+. Normal RBCs were used as controls. Prior to adhesion assays, treated RBCs were labeled with PKH 26 red fluorescent cell linker kit (Sigma), following the manufacturer's instructions.
Treated packed RBCs were lysed with hypotonic buffer (5 mM Na2HPO4+1 mM EDTA+0.1% NaN3, pH 8) containing 2 mM phenylmethylsulphonylfluoride (PMSF, Sigma), phosphatase inhibitor cocktail (Sigma) and protease inhibitor cocktail (Sigma). Protein separation by polyacrylamide gel electrophoresis using equal amounts of total RBC membrane ghost proteins per lane, after correcting total protein measurements for residual hemoglobin content, and Western blot^19 using the appropriate Ab were then performed. Mouse 3T3/A31 fibroblast lysate was used as a ERK1/2 positive control for immunoblots. For total ERK1/2, membranes blotted with anti-phosphoERK Ab were stripped and reexposed to Western blotting using anti-ERK1/2 Ab. Bands were analyzed densitometrically using ImageJ software downloaded from the NIH website. PhosphoERK1/2 data were normalized according to total ERK1/2 and are presented as fold change in ERK phosphorylation.

[3] = tested on: PMN adhesion to non-activated HUVECs; test: Adhesion to HUVECs of PMNs co-incubated with epinephrine-stimulated SS RBCs; format: cell-based, human; details: SS RBCs pre-incubated with inhibitor for 1 hour, then 20 nM epinephrine 1 min
Method: The cells were then washed prior to admixture with fluorescently-labeled native polymorphonuclear cells (PMNs) obtained from healthy donors at a RBC:PMN ratio of 10:1. After co-incubation for 30 minutes at 37° C., cells mixtures were assayed for their ability to adhere to non-activated HUVECs. […] Downregulation of RBC adhesion receptor activity by targeting ERK may not only decrease SS RBC adhesion to the endothelium but also reduce RBC-stimulated leukocyte activation.

[4] = tested on: SS RBC adhesion to TNF-α-activated HUVECs; test: Flow chamber adhesion of SS RBCs to TNF-α-activated HUVECs; format: cell-based, human; details: for effect on SS RBC adhesion to TNF-α-activated HUVECs: SS RBCs treated with MEK inhibitor (10 μM; RDEA119 1 and 10 μM)
Method: Cells were then washed three times with 5 ml PBS with Ca^2+ and Mg^2+. Prior to adhesion assays, washed treated SS RBCs were labeled with PKH 26 red fluorescent cell linker kit (Sigma-Aldrich, St. Louis, Mo.), following the manufacturer's instructions.
Graduated height flow chambers were used to quantify adhesion of RBCs to HUVECs substantially as previously described in detail.^4, 20 In some adhesion studies, slides coated with HUVECs were treated with human recombinant TNF-α at 10 ng/ml for 4 hours. Slides coated with HUVECs treated or not with TNF-α were then washed three times with 20 ml HBSS with 1.26 mM Ca^2+, 0.9 mM Mg^2+ (Gibco, Grand Island, N.Y.) warmed previously to 37° C. and then fit into a variable height flow chamber. The flow chamber was mounted on the stage of an inverted phase contrast microscope (Diaphot, Nikon Inc., Melville, N.Y.) connected to a thermoplate (Tokai Hit Co., Ltd., Japan) set at 37° C. Cells were observed using a video camera (RS photometrics,) attached to the microscope and connected to a Macintosh G4 computer. RBC (3 ml) suspended at 0.2% (vol/vol) in HBSS with Ca^2+, Mg^2+ were infused into the flow chamber and allowed to adhere to the slide for 10 min without flow. Before exposure to flow, a minimum of three fields at each of seven different locations along a line oriented normal to future flow were examined for the total number of fluorescent cells. Fluid flow (HBSS with Ca^2+, Mg^2+) was then started using a calibrated syringe pump. After exposure to flow, the fields were again examined and the number of adherent cells counted. The fraction of adherent cells was presented as (number of cells attached after exposure to flow)/(cells present per field before flow). The wall shear stress was calculated as:
[formula] τw=wall shear stress (dyne/cm^2); Q=volumetric flow rate (cm^3/s); μ is media viscosity, w is the width of the flow channel, and H(x) is the height of the flow chamber as a function of position along the microscope slide. Several investigators have shown that blood flow in small vessels may be continuous, with shear stresses of 1-2 dynes/cm^2, or flow may be intermittent. Our data were obtained using both intermittent and continuous flow conditions.

[5] = tested on: human SS RBC adhesion in inflamed venules and vaso-occlusion; test: Intravital microscopy in TNF-α-treated nude mice infused with human SS RBCs treated ex vivo with MEK inhibitor; details: for percentage of venular length occupied by treated SS RBCs: compared to sham
Source text: For some in vivo adhesion studies, packed SS RBCs were fluorescently labeled with the dye Dil (Molecular Probes Inc., Eugene, Oreg.), following the manufacturer's instructions. […] Cell morphology was checked by microscopy.

[6] = tested on: SS RBC membrane ghost phosphopeptides; test: Label-free quantitative phosphoproteomic analysis of SS RBC membrane ghosts; format: cell-based, human; details: recombinant ERK2 added to U0126-treated SS RBC ghosts
Method: (§1) Ghosted RBCs were spun at 14,000 rpm for 15 min at 4° C. to pellet membranes. Membrane pellets were washed with 1 mL 50 mM ammonium bicarbonate (pH 8.0) with vortexing and were then spun at 14,000 rpm for 30 min at 4° C. The supernatant was then removed and 500 μL of 50 mM ammonium bicarbonate with μL 0.2% acid-labile surfactant (ALS-1) in 50 mM ammonium bicarbonate (pH 8.0) was added. Samples were subjected to probe sonication three-times for 5 sec with cooling on ice between and insoluble material was cleared by centrifugation at 14,000 rpm for 30 mins at 4° C. Samples were normalized to approximately 2 μg/μl following a micro-Bradford assay (Pierce Bioscience), and were reduced with a final concentration of 10 mM dithiothreitol at 80° C. for 20 min. Samples were then alkylated with a final concentration of 20 mM iodoacetamide at room temperature for 45 min and trypsin was added to a final ratio of 1-to-50 (w/w) enzyme-to-protein and allowed to digest at 37° C. for 18 hr. To remove ALS-1, samples were acidified to pH 2.0 with neat TFA, incubated at 60° C. for 2 hrs and spun at 14,000 rpm to remove hydrolyzed ALS-1. Samples were either subjected directly to LC-MS analysis or subjected to a TiO2 based phosphopeptide enriched protocol.
(§2) To enrich for phosphorylated peptides prior to LC-MS analysis, either 1,125 μg and 970 μg of total digested protein from RBC ghosts co-incubated with recombinant active ERK2 experiments and experiments using epinephrine-treated cells, respectively, were brought to near dryness using vacuum centrifugation and then resuspended in 200 μL of 80% acetonitrile, 1% TFA, 50 mg/ml MassPrep Enhancer (pH 2.5) (Waters Corp. Milford, Mass.). Samples were loaded onto an in-house packed TiO2 spin column (Protea Biosciences) with a 562 μg or 485 μg binding capacity for active ERK2 treated or epinephrine treated experiments, respectively. Samples were washed twice with 200 μL 80% acetonitrile, 1% TFA, 50 mg/ml MassPrep Enhancer (pH 2.5) followed by two washes with 200 μL 80% acetonitrile, 1% TFA (pH 2.5). Retained peptides were eluted twice with 100 μL 20% acetonitrile, 5% aqueous ammonia (pH 10.0), acidified to pH 3 with neat formic acid and then brought to dryness using vacuum centrifugation. Prior to LC-MS analysis, each sample was resuspended in 20 μL 2% acetonitrile, 0.1% TFA, 25 mM citric acid (pH 2.5).
Chromatographic separation of phosphopeptide enriched or non-enriched samples was performed on a Waters NanoAquity UPLC equipped with a 1.7 μm BEH130 C1875 μm I.D.×250 mm reversed-phase column. The mobile phase consisted of (A) 0.1% formic acid in water and (B) 0.1% formic acid in acetonitrile. Five μL injections of each sample were trapped for 5 min on a 5 μm Symmetry C18 180 μm I.D.×20 mm column at 20 μl/min in 99.9% A. The analytical column was then switched in-line and the mobile phase was held for 5 min at 5% B before applying a linear elution gradient of 5% B to 40% B or 5% B to 30% B over 90 min at 300 nL/min for ERK2 treated experiments or epinephrine treated experiments, respectively. The analytical column was connected to fused silica PicoTip emitter (New Objective, Cambridge, Mass.) with a 10 μm tip orifice and coupled to the mass spectrometer through an electrospray interface.
(§3) MS data from each phosphopeptide enriched sample was acquired on a Thermo LTQ-Orbitrap XL mass spectrometer operating in positive-ion mode with an electrospray voltage of 2.0 kV with real-time lockmass correction on ambiant polycyclodimethylsiloxane (m/z 445.120025) enabled. The instrument was set to acquire a precursor MS scan from m/z 400-2000 with r=60,000 at m/z 400 and a target AGC setting of 1e6 ions. Each sample was analyzed four-times, one of which was used for additional qualitative identifications only and was not included in the quantitative analysis, with product ions above a threshold of 500 counts were acquired for the top 5 most intense ions in the linear ion trap. […]

[7] = tested on: AA RBC membrane ghost phosphopeptides; test: Label-free quantitative phosphoproteomic analysis of normal (AA) RBC membrane ghosts; format: cell-based, human
Method: as §1
as §2, with “Prior to LC-MS analysis, each sample was resuspended in 20 μL 2% acetonitrile, 0.1% TFA, 25 mM citric acid (pH 2.5).” left out
as §3, with “The instrument was set to acquire a precursor MS scan from m/z 400-2000 with r=60,000 at m/z 400 and a target AGC setting of 1e6 ions.” left out

[8] = SS RBCs treated ex vivo with 10 μM inhibitor for 1 hour, n=5

14-22 amide: PKA-specific inhibitor (PKAI)
effect on combined effect of epinephrine and SPI on ICAM-4 phosphorylation [1]: significantly decreased | effect on epinephrine-induced ERK1/2 phosphorylation ([2]; SS RBCs pre-incubated with inhibitor, then 20 nM epinephrine 1 min): completely blocked | effect on basal ERK phosphorylation ([2]; SS RBCs, 30 nM): did not significantly decrease

Cn1cnc2c(F)c(Nc3ccc(Br)cc3Cl)c(C(=O)NOCCO)cc21 [AZD6244]
ability of epinephrine-activated SS RBCs to promote neutrophil (PMN) adhesion to HUVECs [3]: significantly decreased | effect on SS RBC adhesion to TNF-α-activated HUVECs [4]: significantly abolished

COc1c(C=O)c(O)cc2c1C(=O)c1ccccc1C2=O [Damnacanthal]
effect on PTx-induced ERK phosphorylation ([2]; SS RBCs, 2 μg/ml PTx): did not abrogate

CC(=O)Nc1cccc(-n2c(=O)n(C3CC3)c(=O)c3c(Nc4ccc(I)cc4F)n(C)c(=O)c(C)c32)c1 [GSK1120212]
ability of epinephrine-activated SS RBCs to promote neutrophil (PMN) adhesion to HUVECs [3]: significantly decreased | effect on SS RBC adhesion to TNF-α-activated HUVECs [4]: significantly abolished

COc1cc(F)c(F)c(Nc2ccc(I)cc2F)c1NS(=O)(=O)C1(C[C@H](O)CO)CC1 [RDEA119]
ability of epinephrine-activated SS RBCs to promote neutrophil (PMN) adhesion to HUVECs [3]: significantly decreased | human SS RBC adhesion in inflamed venules [5, 8]: dramatically decreased | vessel obstruction [5, 8]: prevented vessel obstruction | percentage of venular length occupied by treated SS RBCs ([5]; vessels 25 μm in diameter): significantly decreased | percentage of venular length occupied by treated SS RBCs ([5]; vessels with a diameter >25 μm): significantly decreased | effect on SS RBC adhesion to TNF-α-activated HUVECs [4]: significantly abolished

ERK2: commercial recombinant active human ERK2 (Sigma) added to RBC membrane ghosts
change of Ser540/Ser542 doubly phosphorylated peptide within protein 4.1 [6]: +1.7 fold | increase of Ser540/Ser542 doubly phosphorylated peptide within protein 4.1 ([7]; recombinant ERK2 added to U0126-treated AA RBC ghosts): 1.7 fold | increase of Ser540/Ser542 doubly phosphorylated peptide within protein 4.1 ([7]; recombinant ERK2 added to untreated AA RBC ghosts): 2.1 fold

Pertussis toxin [PTx]
increase in basal phosphorylation of ERK1/2 ([2]; SS RBCs, 1 μg/ml PTx alone): 2.04±0.1 fold | increase in basal phosphorylation of ERK1/2 ([2]; SS RBCs, 2 μg/ml PTx alone): 2.53±0.11 fold

TNF-α
increase in SS RBC adhesion vs non-activated HUVECs ([4]; HUVECs treated with TNF-α, shear stress 2 dynes/cm^2, intermittent flow): 2.6 fold
